This is an account of results in US20190015650A1, “MICRONEEDLE TATTOO PATCHES AND USE THEREOF” (Massachusetts Institute of Technology, priority 2017, published 2019).

Data set [1] can be described thus: Chemical stability of dyes: hydrogen peroxide and pH. In kind it is physicochemical. The procedure:
Additional evaluations on the dyes to withstand oxidative stress were tested by submerging the dye in 3 mM or 3 micromolar hydrogen peroxide, and compared for signal before and after such treatment (FIG. 9B). 23 fluorophores were tested.
The pH stability of the dyes was evaluated by submerging in different pH ranging from 1 to 13 (FIG. 9C). 17 fluorophores were tested.

The nature of data set [2]: Photostability of dyes exposed to compact fluorescent (CFL) bulb. The data set is classed as physicochemical. The procedure:
Dyes were prepared in solution (1 mM) or suspension (1 mg/mL) and exposed to light from a compact fluorescent (CFL) bulb (FIG. 9A). 55 fluorophores were tested including organic, encapsulated organic, inorganic, inorganic nanoparticle, tattoo, and semiconducting polymer dots.

Take `CCN1/C(=C/C=C/C=C/C2=[N+](CCCCCC(=O)O)c3ccc(S(=O)(=O)O)cc3C2(C)C)C(C)(C)c2cc(S(=O)(=O)[O-])ccc21` [CY5]: the “Performance: chemical stability” value in data set [1] is given as “Poor chemical stability”. For the same compound, the “Performance: photostability” value in data set [2] is recorded as “Poor photostability”. The corresponding values for `CCN1C(=CC=CC=CC=CC2=[N+](CCCCCC(=O)O)c3ccc(S(=O)(=O)O)cc3C2(C)C)C(C)(C)c2cc(S(=O)(=O)[O-])ccc21` [CY7] are “Poor chemical stability” and “Poor photostability”. `O=C1OC2(c3ccc(O)cc3Oc3cc(O)ccc32)c2ccccc21` [Fluorescein]: in data set [2], the “Performance: photostability” value is on record as “Poor photostability”. Regarding `CCCN1/C(=C/C=C2\CCCC(/C=C/C3=[N+](CCC)c4ccccc4C3(C)C)=C2Cl)C(C)(C)c2ccccc21.[I-]` [IR780], in data set [1], the “Performance: chemical stability” value is on record as “Poor chemical stability”. For the same compound, the “Performance: photostability” value in data set [2] is listed as “Poor photostability”. Turning to Rhodamine, the “Performance: photostability” value in data set [2] is “Poor photostability”.
